Reference: PubChem BioAssay (NCI)
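Dose response: 5 concentrations. Exposure: 48 h. Format: 96-well plates. Endpoint: linear interpolation; highest concentration if not reached. Definition used: TGI = concentration required for complete inhibition of growth.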

Tests used:
Test in all cases: inhibition of tumour cell growth, NCI panel, 48 h
[1] = tested on: KM12 colon
[2] = tested on: HL-60(TB) leukemia
[3] = tested on: COLO 205 colon
[4] = tested on: ACHN renal
[5] = tested on: SNB-19 CNS
[6] = tested on: HOP-18 NSCLC
[7] = tested on: SK-MEL-2 melanoma
[8] = tested on: SF-539 CNS
[9] = tested on: EKVX NSCLC
[10] = tested on: HOP-62 NSCLC
[11] = tested on: OVCAR-5 ovarian
[12] = tested on: XF 498 CNS
[13] = tested on: HOP-92 NSCLC
[14] = tested on: UACC-257 melanoma
[15] = tested on: U251 CNS
[16] = tested on: LXFL 529 NSCLC
[17] = tested on: RPMI-8226 leukemia
[18] = tested on: SK-OV-3 ovarian
[19] = tested on: SF-295 CNS
[20] = tested on: CCRF-CEM leukemia
[21] = tested on: TK-10 renal
[22] = tested on: IGROV1 ovarian
[23] = tested on: 786-0 renal
[24] = tested on: HT29 colon
[25] = tested on: SNB-78 CNS
[26] = tested on: HCC-2998 colon
[27] = tested on: CAKI-1 renal
[28] = tested on: SNB-75 CNS
[29] = tested on: M14 melanoma
[30] = tested on: MALME-3M melanoma
[31] = tested on: RXF 393 renal
[32] = tested on: OVCAR-3 ovarian
[33] = tested on: K-562 leukemia
[34] = tested on: DLD-1 colon
[35] = tested on: SK-MEL-5 melanoma
[36] = tested on: SW-620 colon
[37] = tested on: UO-31 renal
[38] = tested on: A549 NSCLC
[39] = tested on: OVCAR-8 ovarian
[40] = tested on: HCT-15 colon
[41] = tested on: NCI-H460 lung
[42] = tested on: DMS 273 small cell lung
[43] = tested on: SF-268 CNS
[44] = tested on: MOLT-4 leukemia
[45] = tested on: OVCAR-4 ovarian
[46] = tested on: UACC-62 melanoma
[47] = tested on: LOX IMVI melanoma
[48] = tested on: M19-MEL melanoma
[49] = tested on: KM20L2 colon
[50] = tested on: SN12C renal
[51] = tested on: DMS 114 small cell lung
[52] = tested on: HCT-116 colon

With `CC(C)(C)[Si](C)(C)O/N=C\c1cccc(O[Si](C)(C)C(C)(C)C)c1` the TGI [1] was 32.2 µM, the TGI [2] was 36.8 µM and the TGI [3] was 33.1 µM. The TGI [4] was 32 µM, the TGI [5] was 36.6 µM and the TGI [6] was 42.3 µM. It also gave a TGI [7] of 35.3 µM, a TGI [8] of 46.7 µM and a TGI [9] of 36.9 µM. It also gave a TGI [10] of 38.9 µM, a TGI [11] of 35 µM and a TGI [12] of 32.7 µM. It also gave a TGI [13] of 28.8 µM, a TGI [14] of 46.2 µM and a TGI [15] of 31.4 µM. The TGI [16] was 29.1 µM, the TGI [17] was 37.4 µM and the TGI [18] was 36.2 µM. The TGI [19] was 31.9 µM, the TGI [20] was 41.7 µM and the TGI [21] was 49.8 µM. The TGI [22] was 34.9 µM, the TGI [23] was 35.1 µM and the TGI [24] was 31 µM. The TGI [25] was 30.8 µM, the TGI [26] was 34.7 µM and the TGI [27] was 42.2 µM. The TGI [28] was 31.8 µM, the TGI [29] was 29.4 µM and the TGI [30] was 62.1 µM. For the same molecule, the TGI [31] was 37.4 µM, the TGI [32] was 29.8 µM and the TGI [33] was 35.4 µM. The TGI [34] was 33.6 µM, the TGI [35] was 34.2 µM and the TGI [36] was 34.7 µM. It also gave a TGI [37] of 29.6 µM, a TGI [38] of 37.4 µM and a TGI [39] of 39.6 µM. For the same molecule, the TGI [40] was 35.7 µM, the TGI [41] was 32.6 µM and the TGI [42] was 32.6 µM. The TGI [43] was 38.5 µM, the TGI [44] was 36.8 µM and the TGI [45] was 34.2 µM. It also gave a TGI [46] of 32.4 µM, a TGI [47] of 35.5 µM and a TGI [48] of 34.6 µM. For the same molecule, the TGI [49] was 38.8 µM, the TGI [50] was 36.6 µM and the TGI [51] was 35.6 µM. The TGI [52] was 34.1 µM.
